The values that follow come from patent US4859776A, “(S)-7-(3-aminopyrrolidin-1-yl)-1-(ortho, para-difluorophenyl)-1,4-dihydro-6-fluoro-4-oxo-1,8-naphthyridine-3-carb oxylic acid and method for its preparation” (Abbott Laboratories, priority 1988, dated 1989).

The subject of one assay is P. Aeruginosa 5007. Briefly: Mouse protection test, P. Aeruginosa 5007. To be noted: Pseudomonas aeruginosa. The class given is in vivo. From the text:
(§1) The differences in in vivo antibacterial activity of racemic (R,S) compound (A) versus the (S) enantiomeric form of compound (A) are shown in Table I. |POTENCY OF (A) IN MOUSE PROTECTION TESTS | ED50 (mg/kg/day)

A further assay relates to E. Coli Juhl. Briefly: Mouse protection test, E. Coli Juhl. The conditions noted are these: Escherichia coli. The class given is in vivo.
From the text: as §1

The test system of a further assay is S. Aureus NCTC 10649. The assay is described as follows: Mouse protection test, S. Aureus NCTC 10649. Format: in vivo. The conditions noted are these: Staphylococcus aureus.
From the text: as §1

For assay [1] the following is noted: one enantiomeric form vs the other form; background statement; cited from earlier work.
The conditions of assay [2]: racemic mixture; J. Med. Chem., 29, 2363 (1986); cited from earlier work.

Usually ED50 stands for the midpoint of the dose-response relation. Read a low ED50 as greater potency. As to `N[C@H]1CCN(c2nc3c(cc2F)c(=O)c(C(=O)O)cn3-c2ccc(F)cc2F)C1` [(S)--(A), (S)-7-(3-aminopyrrolidin-1-yl)-1-(o,p-difluorophenyl)-1,4-dihydro-6-fluoro-4-oxo-1,8-naphthyridine-3-carboxylic acid], the ED50 with P. Aeruginosa 5007 (oral) turned out to be 12.1 mg/kg; in the assay on P. Aeruginosa 5007 (sc, subcutaneous), 8.6 mg/kg; in the assay on E. Coli Juhl (oral), 0.8 mg/kg; in the assay on E. Coli Juhl (sc, subcutaneous) it was 0.2 mg/kg; with S. Aureus NCTC 10649 (NCTC10649, oral), 0.8 mg/kg; with S. Aureus NCTC 10649 (NCTC10649, sc, subcutaneous), 0.4 mg/kg.

With `CNCC(O)c1ccc(O)c(O)c1` (centres unmarked) [adrenalin], the “activity in raising blood pressure, one enantiomeric form versus the other” value in assay [1] is recorded as “over ten times more active”.

As for `NC1CCN(c2nc3c(cc2F)c(=O)c(C(=O)O)cn3-c2ccc(F)cc2F)C1` (racemic) [(R,S)--(A), 7-(3-aminopyrrolidin-1-yl)-1-(o,p-difluorophenyl)-1,4-dihydro-6-fluoro-4-oxo-1,8-naphthyridine-3-carboxylic acid], the ED50 in the assay with P. Aeruginosa 5007 (oral) is 16 mg/kg; with P. Aeruginosa 5007 (sc, subcutaneous), greater than 20 mg/kg; in the assay on E. Coli Juhl (oral) it was 1.2 mg/kg; with E. Coli Juhl (sc, subcutaneous), 0.3 mg/kg; in the assay on S. Aureus NCTC 10649 (NCTC10649, oral), 1 mg/kg; in the assay with S. Aureus NCTC 10649 (NCTC10649, sc, subcutaneous), 0.4 mg/kg. In assay [2], the antibacterial properties entry was “has been shown to exhibit antibacterial properties”.
